Assay results reported in patent US20130184337A1, “SODIUM ASCORBATE STIMULATION OF ELASTOGENESIS” (THE HOSPITAL FOR SICK CHILDREN, priority 2012, published 2013).
“Also recorded” adds a separate entry of the source.

Experiments:
Type in all cases: cell-based, human
explants of dermal scars = experiment: Organ culture of skin explants (histochemistry, insoluble elastin); conditions: 200 μM SA
Experimental: Organ culture of skin explants—Fragments of normal skin, stretch-marked skin and dermal scars collected during plastic surgery procedures were cut into multiple 4 mm2 pieces and maintained for 7 days in DMEM medium containing 5% FBS, […] The parallel quadruplicate explants from each experimental group were additionally maintained in the presence 2 μCi of [3H]-valine/ml and then subjected to the assay of insoluble elastin. The parallel explants from each experimental groups were also evaluated after pentachrome Movat's staining which allows for clear marking of elastic fibers. In each experimental group, 50 sections derived from quadruplicate explants were analyzed.

insulin receptor = experiment: Insulin receptor phosphorylation (immuno-precipitation, anti-phospho-tyrosine Western blot); conditions: 100 μM SA, basic or insulin-induced
Experimental: At the end of each experiment cells were submerged in the lysis buffer containing a broad-range phosphatase inhibitor. The polyclonal antibodies recognizing either the β subunits of the IGF-IR or the β subunit of the insulin receptor were immobilized on separate sets of the IgG-bearing magnetic beads (Invitrogen Canada Inc, Burlington, ON) and then incubated for 1 hour with the aliquots of the cell lysates containing 400 μg of protein as described in the manufacturer protocol. The beads bearing the resulting immuno-precipitation products were re-suspended in sample buffer and the released proteins were resolved with SDS-PAGE and subjected to Western blotting with a monoclonal anti-p-Tyr (PY99) antibody from Santa Cruz Biotechnology Inc. (Santa Cruz, Calif.) and then with HRP-conjugated goat anti-mouse secondary antibody.

[1] = tested on: normal dermal fibroblasts; experiment: Elastic fiber deposition (immuno-staining morphometry, [3H]-valine insoluble elastin) in monolayer cultures
Experimental: Cell Cultures—Fibroblasts initially grew out from the explants of these full thickness skin biopsies and were maintained. The primary cultures of fat-derived fibroblasts obtained from Thermogenesis (Rancho Cordova, Calif.) were also tested. In all described experiments, 2-4 passages of both kinds of fibroblasts were used. In experiments aimed at assessing ECM production, cells were initially plated at a concentration of 100,000 cells/dish.
Immuno-staining—All cultures maintained in the presence and absence of indicated reagents were either fixed in cold 100% methanol at −20° C. (for detection of elastin) or in 4% paraformaldehyde at room temperature (for detection of collagen I). The multiple parallel cultures were then incubated with 10 μg/ml of polyclonal antibody to tropoelastin (Elastin Products, Owensville, Mich.), or polyclonal antibody to collagen type I (Chemicon, Temecula, Calif.). Cultures were then incubated with the respective fluorescein-conjugated goat anti-rabbit, goat anti-mouse, or rabbit anti-goat secondary antibodies. Nuclei were counterstained with propidium iodide (Sigma, Sigma, St. Louis, Mo.). All of the cultures were then examined with a Nikon Eclipse E1000 microscope attached to a cooled CCD camera (QImaging, Retiga EX) and analyzed by the computer-generated morphometric analysis system (Image-Pro Plus software, Media Cybernetics, Silver Springs, Md.) as previously described.
Quantitative Assays of Insoluble Elastin—Fibroblasts were grown to confluency in 35-mm culture dishes (100,000 cells/dish). Next, 2 μCi of [3H]-valine/ml (Amersham Biosciences Ltd. Oakville, Canada), were added to each dish along with or without the indicated treatments. At the end of each experiment, the levels of metabolically labeled NaOH-insoluble elastin present in individual cultures were assayed and normalized per their DNA content.

tropoelastin mRNA = experiment: RT-PCR of tropoelastin mRNA normalized to GAPDH mRNA; conditions: 50-200 μM, 18 hours, medium with 5% FBS
Experimental: One-Step RT-PCR Analysis—The confluent cultures of skin fibroblasts were treated with or without the reagents of interest for different periods of time as indicated in the figure legend. Total RNA was extracted using the RNeasy Mini Kit, and the one-step RT-PCR reactions were set up with the RT-PCR Kit, according to the manufacturer's (Qiagen, Mississauga, ON) instructions. The amounts of tropoelastin mRNA were always normalized to the amount of GAPDH mRNA.

[2] = tested on: fat tissue-derived fibroblasts; experiment: Elastin deposition (immuno-staining morphometry, insoluble elastin assay) in fat-derived fibroblasts; conditions: 50-200 μM, on average, p<0.01
Experimental: Cell Cultures-Fibroblasts initially grew out from the explants of these full thickness skin biopsies and were maintained. The primary cultures of fat-derived fibroblasts obtained from Thermogenesis (Rancho Cordova, Calif.) were also tested. In all described experiments, 2-4 passages of both kinds of fibroblasts were used. In experiments aimed at assessing ECM production, cells were initially plated at a concentration of 100,000 cells/dish. […] Immuno-staining-All cultures maintained in the presence and absence of indicated reagents were either fixed in cold 100% methanol at -20° C. (for detection of elastin) or in 4% paraformaldehyde at room temperature (for detection of collagen I). The multiple parallel cultures were then incubated with 10 μg/ml of polyclonal antibody to tropoelastin (Elastin Products, Owensville, Mich.), or polyclonal antibody to collagen type I (Chemicon, Temecula, Calif.). […] All of the cultures were then examined with a Nikon Eclipse […] microscope attached to a cooled CCD camera (QImaging, Retiga EX) and analyzed by the computer-generated morphometric analysis system (Image-Pro Plus software, Media Cybernetics, Silver Springs, Md.) as previously described. Quantitative Assays of Insoluble Elastin-Fibroblasts were grown to confluency in 35-mm culture dishes (100,000 cells/dish). […]

[3] = tested on: explants of dermal stretch marks; experiment: Organ culture of skin explants (Movat pentachrome morphometry, insoluble elastin); conditions: 200 μM, 10-day-long daily treatment
Experimental: The parallel quadruplicate explants from each experimental group were additionally maintained in the presence 2 μCi of [3H]-valine/ml and then subjected to the assay of insoluble elastin. The parallel explants from each experimental groups were also evaluated after pentachrome Movat's staining which allows for clear marking of elastic fibers. In each experimental group, 50 sections derived from quadruplicate explants were analyzed.

Question: Which “production of new elastic fibers” value (explants of dermal scars) does the source give for O=C1O[C@H]([C@@H](O)CO)C([O-])=C1O.[Na+] [SA, (+)-sodium L-ascorbate] here?
Answer: Its value is “initiated production of new elastic fibers”.

Question: And the “phosphorylation of insulin receptor” value (insulin receptor)?
Answer: Its value is “did not induce heightened phosphorylation; also recorded: does not enhance basic or insulin-induced phosphorylation of insulin receptor”.

Question: What about the “production of immuno-detectable elastic fibers” value ([1]; 50 μM to 200 μM, 24-hour-old cultures, 5% FBS) of the same compound?
Answer: Its value is “significantly stimulated production of immuno-detectable elastic fibers; also recorded: upregulate production of elastic fibers”.

Question: And the “elastin deposition, SA added to IGF-1” value ([1]; 100 μM SA added to 50 ng/ml IGF-1)?
Answer: The value was “significantly up-regulated the levels of elastin deposition”.

Question: And the “elastogenesis, SA added to dexamethasone” value ([1]; 100 μM SA added to 1 μM dexamethasone)?
Answer: The value was “did not further enhance the increase in elastogenesis”.

Question: And the “elastogenesis / net deposition of new elastic fibers” value ([1]; 100 μM alone, 24 hours, 5% FBS)?
Answer: Its value is “remarkable up-regulation in the net deposition of new elastic fibers; also recorded: similarly strong elastogenic effects as treatment with 50 ng/ml of exogenous IGF-1; also recorded: upregulates elastogenesis only in cultures of dermal fibroblasts maintained in media containing 5% FBS”.

Question: And the “deposition of elastic fibers” value ([1]; 400 μM, 24-hour-old cultures, 5% FBS)?
Answer: The value was “did not further stimulate deposition of elastic fibers”.

Question: And the elastogenesis ([1]; 800 μM, 24-hour-old cultures, 5% FBS)?
Answer: The elastogenesis was “clear inhibition of elastogenesis; also recorded: inhibits elastogenesis”.

Question: And the “elastogenic effects in serum-free medium” value ([1]; SA, 18-24 hour-old cultures, serum-free medium)?
Answer: The value was “could not be observed in cultures maintained in serum-free medium”.

Question: And the “levels of tropoelastin-encoding mRNA” value (tropoelastin mRNA)?
Answer: Its value is “significant and dose-dependent up-regulation”.

Question: What about the “increase in elastin deposition” value [2] of the same compound?
Answer: The value was 22%+/−4%.

Question: What about the elastogenesis [3] of the same compound?
Answer: Its elastogenesis is “restored the practically non-existent elastogenesis”.
